According to patent publication US20250332397A1, “SYSTEMS AND METHODS FOR MICRONEEDLE THERAPEUTIC DELIVERY WITH ACOUSTIC SIGNALS” (THE TRUSTEES OF INDIANA UNIVERSITY, priority 2021, published 2025):

Legend:
[1] = Ex vivo delivery in mice skin tissues (dye released, absorbance); format: in vitro ADME, BALB/c mice; details: FIG. 10; 1 Mhz, duty cycle 15%, 4.2 w/cm^2; 30 s, 60 s, 180 s
Excerpt: The prepared RhB dye (or epinephrine) loaded acoustic patches (or passive patches) were inserted into the fresh hair removed skin tissues harvested from BALB/c mice, and removed from the mice skin tissues. The acoustic path treatment condition (frequency, 1 Mhz; duty cycle, 15%; energy density, 4.2 w/cm^2) was applied to three mouse skin tissues, while there was not acoustic stimulation for passive patch treatments. The mouse skin tissues after acoustic patch and passive treatments with three different treatment time (e.g., 30 s, 60 s, or 180 s) were analyzed.

[2] = acoustic patch mediated delivery, mouse "B"

Experimental for anaphylactic mouse model: Olbumin from chicken egg white (OVA) was used as antigen to induce anaphylaxis, where OVA dosage could regulate the degree of anaphylaxis. Specifically, an OVA solution as an adjuvant was prepared in 1 mg/mL of OVA with 1 μg/mL of Pertussis toxin and 10 mg/mL of aluminum potassium sulfate in 0.9% saline. To sensitize mice, BALB/c mice were injected intraperitoneally with 100 μL of the adjuvant OVA solution. After 3 weeks, these actively sensitize mice were challenged with 10 mg/mL of the adjuvant OVA solution. To trigger the anaphylactic reaction, a 50 μL of 10 mg/mL OVA solution in 0.9% saline was injected intraperitoneally into a mouse. The whole anaphylactic process lasted for about 120 mins, and all the mice were sacrificed after the experimental procedures.
The mice during anaphylaxis were characterized via physiological parameters and symptoms including rectal temperature, movement score, respiratory rate, or blood histamine level. Rectal temperature was measured using a rectal probe for mice in every 2 min in real-time. Respiratory rate was measured through counting the breaths during every 20 seconds through observing the thoracic movement. Movement score was tested by rules as follows: (1) react actively after provoking; (2) slow in response after provoking; (3) no active response after provoking; (4) died. Blood histamine level was measured by testing whole blood samples through tail vein through an ELISA kit (Catalog No: IT6088, vendors). Samples were all restored in −80° C. refrigerator for later assessment of the concentration of histamine by an ELISA kit.
Mice were sensitized via intraperitoneal injection of chicken ovalbumin (OVA) and aluminum potassium sulfate adjuvant and triggered an acute allergic reaction by injecting OVA as an allergen after three weeks. […] We measured the core temperature and respiratory rate of the sensitized mice during the induction of anaphylaxis.

Structure (SMILES): CCN(CC)c1ccc2c(-c3ccc(S(=O)(=O)O)cc3S(=O)(=O)[O-])c3ccc(=[N+](CC)CC)cc-3oc2c1 [RhB dye, sulforhodamine B]
- dye released into mouse skin over different delivery times, with acoustics vs without acoustics [1]: increased delivery

Structure (SMILES): CNC[C@H](O)c1ccc(O)c(O)c1 [epinephrine]
- allergic symptoms of mouse experiencing severe anaphylaxis (anaphylactic mouse model; [2]): relief from allergic symptoms
- body temperature of mouse experiencing severe anaphylaxis (anaphylactic mouse model; [2]): immediate body temperature increase
- symptoms of anaphylaxis (hypothermia, reduced activity, opisthotonos) (anaphylactic mouse model; after intramuscular injection): obtained relief from these symptoms
